Reference: the NIST ThermoML archive (doi:10.1016/j.jct.2018.06.021)
Numbers after ± are expanded uncertainties.

Key:
[1] = 101.33 kPa, Liquid; for viscosity: Falling or rolling sphere viscometry; for mass density: Vibrating tube method
[2] = wn = mass fraction of the nth substance listed; conditions: 101.3 kPa, Liquid, Vibrating tube method

OCCO [1,2-ethanediol]
viscosity ([1]; 303.15 K): 13.66 ± 0.56 mPa·s
mass density ([1]; 303.15 K): 1106.3 ± 2 kg/m3
viscosity ([1]; 308.15 K): 11.32 ± 0.46 mPa·s
viscosity ([1]; 313.15 K): 9.474 ± 0.39 mPa·s
mass density ([1]; 313.15 K): 1099.2 ± 2 kg/m3
viscosity ([1]; 318.15 K): 8.016 ± 0.33 mPa·s
viscosity ([1]; 323.15 K): 6.849 ± 0.28 mPa·s
mass density ([1]; 323.15 K): 1092.1 ± 2 kg/m3
viscosity ([1]; 328.15 K): 5.903 ± 0.24 mPa·s
mass density ([1]; 328.15 K): 1088.4 ± 2 kg/m3
viscosity ([1]; 333.15 K): 5.124 ± 0.21 mPa·s
mass density ([1]; 333.15 K): 1084.8 ± 2 kg/m3
viscosity ([1]; 338.15 K): 4.482 ± 0.18 mPa·s
mass density ([1]; 338.15 K): 1081.2 ± 2 kg/m3
viscosity ([1]; 343.15 K): 3.946 ± 0.16 mPa·s
mass density ([1]; 343.15 K): 1077.5 ± 2 kg/m3
viscosity ([1]; 348.15 K): 3.496 ± 0.14 mPa·s
mass density ([1]; 348.15 K): 1073.7 ± 2 kg/m3
viscosity ([1]; 353.15 K): 3.112 ± 0.13 mPa·s
mass density ([1]; 353.15 K): 1070 ± 2 kg/m3

O [water] + OCCO
mass density ([2]; 323.25 K, w2 = 0): 988 ± 2 kg/m3
mass density ([2]; 333.35 K, w2 = 0): 983.1 ± 2 kg/m3

OCCO [1,2-ethanediol] + O
mass density ([2]; 293.25 K, w1 = 1): 1113.6 ± 2 kg/m3
mass density ([2]; 293.45 K, w1 = 0.95): 1109.3 ± 2 kg/m3
mass density ([2]; 303.15 K, w1 = 1): 1106.5 ± 2 kg/m3
mass density ([2]; 303.45 K, w1 = 0.95): 1102.4 ± 2 kg/m3
mass density ([2]; 313.15 K, w1 = 1): 1099.2 ± 2 kg/m3
mass density ([2]; 323.25 K, w1 = 0.95): 1088.3 ± 2 kg/m3
mass density ([2]; 323.25 K, w1 = 1): 1091.9 ± 2 kg/m3
mass density ([2]; 333.25 K, w1 = 1): 1084.6 ± 2 kg/m3
mass density ([2]; 333.35 K, w1 = 0.95): 1081 ± 2 kg/m3
